Assay results: patent publication US20040044304A1, “Local drug delivery using photosensitizer-mediated and electromagnetic radiation enhanced vascular permeability” (priority 2002, published 2004)
Where two headings read alike, the source gives them in different places.

System: blood vessels within the dorsal window chamber
Assay type: in vivo, Syrian golden hamsters
Conditions: for Observations 24 hr post FITC-Dextran administration / Observations immediately post FITC-Dextran administration (extravasation): blue 425 nm; for Leakage of FITC-Dextran, dependence on presence of photosensitizer: light doses used in the evaluable animals of Tables 1-4
Source text: Syrian golden hamsters (Charles River Laboratories, Kingston, N.Y.) weighing between 60-70 gram were surgically implanted with titanium back-pack window chambers as described ([…] et al., 1980; Colantuoni et al., 1984; […] et al., 1994). Prior to the surgical procedure, the dorsal surface of the mouse was shaved with electric clippers (Sunbeam Oster 2-Speed, 150 Cadillac Lane, McMinnville, Tenn., 37110) and then the shaved skin covered in a depilatory cream (Nair, Carter Products, New York, N.Y., 10105) for 10 minutes to remove the remaining hair. A dorsal skin fold consisting of two layers of skin and muscle tissue was then sandwiched between two opposing titanium frames (Campus Research Machine Shop, University of California, San Diego 9500 Gilman Drive, La Jolla, Calif.) with a 15 mm circular opening in each. Layers of skin and muscle fascia were separated from the sub-cutaneous tissue, and removed until a thin monolayer of muscle and one layer of intact skin remained. A coverglass (Type Circle 1, Part #12-545-80 sourced from Fisher Scientific, 2761 Walnut Avenue, Tustin, Calif., 92780) held by an expansion ring in the circular window of one titanium frame was then placed on the exposed tissue to allow direct microscopic visualization of the vasculature. The window in the second opposing titanium frame was left open exposing the intact skin. Two days following the implantation of the titanium chamber, an in-dwelling PE10 catheter (VVR Scientific, Westchester, Pa.) was implanted in the carotid artery. The catheter tubing was passed sub-cutaneously from the ventral to the dorsal side of the neck, and exteriorized through the skin at the base of the chamber. The patency of the catheter was ensured by daily flushing of the in-dwelling implanted tip with 0.005-0.01 ml of heparinized saline (40 IU/ml). The heparin was sourced from Upjohn Co., 100 Route […], Prepack, N.J., 07977, and the saline from Abbott Laboratories, North Chicago, Ill., 60064. Microvascular observations using an intra-vital microscope were not undertaken until at least 4 days post-chamber implantation to mitigate against post-surgical trauma, and to confirm that blood vessels within the chamber were functioning and intact and patent. A chamber was considered suitable for subsequent studies if microscopic examination of the preparation met the following criteria (as applied in […] et al., 1994): The intra-vital microscopic studies were undertaken on un-sedated animals held in a Plexiglass tube (Campus Research Machine Shop, University of California, San Diego 9500 Gilman Drive, La Jolla, Calif.) from which the window chamber sandwich protruded horizontally, allowing visualization of the chamber on the microscope stage. The Plexiglass tube acted to restrain the animals without impeding respiration. The intra-vital microscopy was performed using a Leitz Ortholux II (McBain Instruments, Inc., 9601 […] Avenue, Chatsworth, Calif., 91311) fitted with a Leitz Wetzlar 25× saline immersion objective lens, 0.6 numerical aperture (McBain Instruments, Inc., 9601 […] Avenue, Chatsworth, Calif., 91311), a Leitz Wetzlar 10× dry Planfluotar lens, 0.3 numerical aperture (McBain Instruments, Inc., 9601 […] Avenue, Chatsworth, Calif., 91311) and a Leitz Wetzlar 4× EF dry lens, 0.12 numerical aperture (McBain Instruments, Inc., 9601 […] Avenue, Chatsworth, Calif., 91311). A 100 Watt Hg light source (Olympus Corporation, 2 Corporate Center Drive, Melville, N.Y., 11747-3157) was used for both trans- and epi-illumination. For the trans-illumination studies the light was filtered using a 420 nm blue filter which selectively passed light in the region of the maximum absorbance band of hemoglobin, causing the red blood cells to appear as dark objects against a gray background. In addition, a heat filter was placed in the light path prior to the condenser to prevent hyperthermic effects on the tissue being examined.

Effect on venules and veins during PhotoPoint therapy (hamster, in vivo) | Focal constrictions apparent in arterioles and arteries, time following the commencement of PhotoPoint therapy (hamster, in vivo) [s] | Dilation apparent in venules and veins, time following the commencement of PhotoPoint therapy (hamster, in vivo) [s] | SMILES | Observations 24 hr post FITC-Dextran administration (hamster A69, SnET2 1.0 mg/kg i.c., 25 J/cm^2, 44 mW/cm^2) | Observations immediately post FITC-Dextran administration (extravasation) (hamster A69, SnET2 1.0 mg/kg i.c., 25 J/cm^2, 44 mW/cm^2, FITC-Dextran approx. 45 min post PhotoPoint therapy) | Observations 24 hr post FITC-Dextran administration (hamster A70, SnET2 1.0 mg/kg i.c., 50 J/cm^2, 44 mW/cm^2) | Observations immediately post FITC-Dextran administration (extravasation) (hamster A70, SnET2 1.0 mg/kg i.c., 50 J/cm^2, 44 mW/cm^2, FITC-Dextran approx. 60 min post PhotoPoint therapy) | Leakage of FITC-Dextran, dependence on presence of photosensitizer | Observations immediately post FITC-Dextran administration (extravasation) (hamster A41, MV6401 0.05 mg/kg i.c., 50 J/cm^2, 80 mW/cm^2, FITC-Dextran approx. 30 min post PhotoPoint therapy) | Observations 24 hr post FITC-Dextran administration (hamster A46, MV6401 0.15 mg/kg i.c., 50 J/cm^2, 56.6 mW/cm^2) | Observations immediately post FITC-Dextran administration (extravasation) (hamster A46, MV6401 0.15 mg/kg i.c., 50 J/cm^2, 56.6 mW/cm^2, FITC-Dextran approx. 50 min post PhotoPoint therapy) | Edema apparent in tissue in chamber, 24 hr post FITC-Dextran administration (hamster, in vivo, 0.05 mg/kg) | Vascular damage, 24 hr post FITC-Dextran administration (hamster, in vivo, 0.05 mg/kg)
some minor constriction | ≤ 30 | – | CCOC(=O)C1=Cc2c3nc(cc4nc(cc5[n-]c(cc6[n-]c2c(C)c6CC)c(C)c5CC)C(C)=C4CC)[C@@H](C)[C@]13CC.[Cl-].[Cl-].[Sn] (racemic) [SnET2, tin ethyl etiopurpurin] | Results as for Animal A35. | Results as for Animal A35. | Results as for Animal A35. | Results as for Animal A35. | only occurred when the photosensitizer (either MV6401 or SnET2) was present | – | – | – | – | –
– | ≤ 30 | ≤ 30 | C=Cc1c(C)c2[n]3c1=CC1=NC(=Cc4c(C)c5c([n]4[In]3[Cl])C(=C3N=C(C=2)[C@@H](C)[C@@H]3CCC(=O)OC)CC5=O)C(CC)=C1C [MV6401, indium methyl pyropheophorbide] | – | – | – | – | only occurred when the photosensitizer (either MV6401 or SnET2) was present | Results as for Animal A35 | Results as for Animal A35. | Results as for Animal A35. | vascular damage. Severe | Gross and microscopic
